Measured values taken from PMC10102027, “Helquat dyes targeting G-quadruplexes as a new class of anti-HIV-1 inhibitors” (Scientific Reports, 2023).
“Also recorded” adds a separate entry of the source.

Assays:
[1] = test system: HIV-1; assay: Adsorption assay (RT activity in supernatant); type: cell-based; details: 10 µM, compound and virions added to MT-4 cells simultaneously, washed out after 2 h, RT activity 5 days after infection
Method: (§1) To address virion binding and entry in a competitive setting, we performed an adsorption assay where test compounds and virions were added to MT-4 cells simultaneously and were washed out after 2 h of incubation. In parallel, we performed a replication assay where MT-4 cells were infected with HIV-1 and the tested compounds were added 1 h later. In both cases, the infection was evaluated by measuring reverse transcriptase activity in a cell-free supernatant 5 days after the infection (Fig. 3). As controls, PBS (phosphate-buffered saline) and inhibitors of different HIV-1 life-cycle steps were used: AMD (AMD3100), an inhibitor of gp120 attachment to CXCR4 receptors of the target cell, thus preventing HIV-1 adsorption and entry; AZT (azidothymidine), an inhibitor of reverse transcriptase; and RAL (raltegravir), an integrase inhibitor.
(§2) MT-4 cells were seeded in 80 µl of the Roswell Park Memorial Institute (RPMI) medium in the amount of 2 × 10^5 cells per well of a 96-well plate, and 10 µl of the virus stock were immediately added with the final multiplicity of infection (MOI) of 0.05. For a replication assay, the infected cells were incubated at 37 °C for 1 h before the addition of compounds being tested (10 µM final concentration) and subsequently cultivated at 37 °C for another 5 days. For an adsorption test, by contrast, the compounds (10 µM final concentration) were added simultaneously with the virus, and after 2 h of incubation, the cells were washed three times with PBS to remove the compounds and unbound virions; after the addition of 100 µl of the RPMI medium, the cells were cultivated at 37 °C for 5 days. Five days post-infection, aliquots of virus-containing cell-free supernatants were harvested and analysed by reverse transcriptase (RT) assay (described in the Supplementary Information). The experiments were performed as biological replicates where the sample size for each condition was n = 3.
(§3) RT assay. The reverse transcriptase (RT) activity in a cell-free supernatant was assessed by an α-32P RT assay. Briefly, the RT activity in the culture medium, which corresponded to the amount of HIV-1, was used to produce a DNA copy of an RNA template by extending a complementary oligo dT DNA primer with radiolabelled nucleotides. A reaction mixture containing 50 mM Tris-HCl pH 7.8, 75 mM KCl, 2 mM DTT, 5 mM MgCl2 and 0.5% NP-40 (all Sigma-Aldrich), 5 µg per ml of poly (rA)-poly (dT) (The Midlan Certified Reagent Company) with 1 µl 10-mCi/ml [α-32P]dTTP (American Radiolabeled Chemicals) per ml, and the tested sample was incubated at 37°C for two hours, after which 10 µl were spotted on DEAE blotting paper (PerkinElmer) and air-dried. After five washes with SSC buffer (0.15 M NaCl, 0.015 M sodium citrate) and three additional washes with 85% ethanol, the blotting paper was exposed to Phosphoscreen overnight, which was scanned on a Typhoon 9410 Phosphorimager instrument (GE Healthcare). The intensity of the dots was analysed by the ImageQuant software (GE Healthcare).

[2] = test system: HIV-1; assay: Replication assay (RT activity in supernatant); type: cell-based; details: 10 µM, compound added 1 h after infection of MT-4 cells, RT activity 5 days after infection
Method: as §1, §2, §3

[3] = test system: NL4-3 HIV-1; assay: Modified time-of-addition assay; type: cell-based; details: 10 μM, MT-4 cells, RT activity 31 h post-infection; for activity by time of addition: added 2-24 h post-infection
Method: There are indications that G4s in the HIV-1 promoter might play roles in both RNA and DNA forms. G4s present in the LTR region of HIV-1 genomic RNA could influence reverse transcription. By contrast, G4s in the promoter region of the integrated HIV-1 provirus might regulate the transcription of viral genome and of viral mRNAs and thus the expression of viral proteins and the production of new virions - both the later stages of the HIV-1 life cycle. A modified time-of-addition assay was performed with an emphasis on the later stages of the HIV-1 life cycle, such as reverse transcription, integration and provirus expression. The tested compounds were added at several time points, but the initial time point was 2 h post-infection to eliminate their virucidal/adsorption/entry effects. Several inhibitors of the individual steps of the HIV-1 life cycle were used as controls to resolve the post-entry steps of the HIV-1 life cycle. MT-4 cells were infected with NL4-3 HIV-1 and the infection was allowed to proceed for 1 h. Subsequently, the unbound virions were washed out, and the cells were resuspended in fresh media. The compounds were first added 2 h after the infection. The culture media were harvested 31 h later and the number of released virions was monitored through the activity of reverse transcriptase in the culture media (Fig. 4).
MT-4 cells were infected with NL4-3 HIV-1 at a MOI of 1. After 1 h, the cells were washed, seeded (100,000 cells/well) and incubated at 37 °C. […] HIV-1 production was determined 31 h post-infection by measuring RT activity in the supernatant.
as §3

[4] = test system: G-quadruplexes in the HIV-1 LTR (G4 LTR FRET oligonucleotide); assay: FRET melting assay; type: binding; details: 2 μM compound, 0.2 μM oligonucleotide; for Tm: 100 mM KCl, mean and standard error, three experiments; for ΔTm: average Tm minus average Tm of PBS
[5] = test system: HIV-1 LTR G-quadruplex template (G4 LTR Stop); assay: Taq polymerase stop assay; type: biochemical; details: for Fold change, all regions (A, B and C) together: normalized against control; for Fold change: A (G-patch 6′) / Fold change: B (G-patch 6) / Fold change: C (G-patch 5): 2.5 µM, pixel intensity normalized against negative control; for G-quadruplex stabilization / stop band pattern: Taq polymerase pausing at G-patches, 1-5 μM
Method: To address specifically the positions in the HIV-1 promoter region that are affected by the binding of G4-stabilizing agents, we performed a Taq polymerase stop assay. The wild-type LTR oligonucleotide was extended at the […] to include a primer-annealing region and used as a template for a single-cycle Taq polymerase reaction. The elongation of the radioactively labelled primer was performed at 45 °C in the presence or absence of the tested compounds and controls.
A Taq polymerase stop assay was carried out as described in a previous study. Briefly, the primer (G4 LTR primer, Supplementary Table S1) was 5′-end labelled with [γ-^32P]ATP using T4 polynucleotide kinase at 37 °C for 30 min. The T4 polynucleotide kinase was then inactivated by incubation at 65 °C for 5 min. The radioactively labelled primer was column-purified and stored at − 20 °C for further use. The labelled primer (1.7 pmol) was annealed to the template (2.1 pmol) in the LiCaco buffer and extended with the Go Taq DNA polymerase (2U/reaction, Promega) at 45 °C for 45 min. Samples were incubated with G-quadruplex-ligands at 45 °C for 45 min before DNA polymerase addition. The reactions were stopped by a denaturing solution (80% formamide, 10% glycerol, 0.025% xylen cyanol, 0.025% bromphenol blue and 10 mM EDTA pH 8); extension products were separated on 15% denaturing gel and visualized by phosphorimaging. The pixel intensity of bands was calculated using 1D gel analysis in ImageQuant TL software version 8.1 (GE HealthCare) after automatic background subtraction by Rolling Ball method.

SMILES	effect on virus adsorption [1]	effect on viral replication [2]	latest time of administration post-infection with retained antiviral activity [3]	activity by time of addition [3]	Tm [4] [°C]	ΔTm [4] [°C]	Fold change, all regions (A, B and C) together ([5]; 1 μM)	Fold change, all regions (A, B and C) together ([5]; 2.5 μM)	Fold change: A (G-patch 6′) [5]	Fold change: B (G-patch 6) [5]	Fold change: C (G-patch 5) [5]	Fold change, all regions (A, B and C) together ([5]; 5 μM)	G-quadruplex stabilization / stop band pattern [5]
Cn1cc(/C=C/c2cc(/C=C/c3cn(C)c4ccccc34)[n+]3c(c2)-c2c(ccc4c2-c2cccc[n+]2CCC4)CCC3)c2ccccc21 [Compound 12]	minimal or no effect on virus adsorption	significantly impairing viral replication	up to 8 h	preserved their activity at later time points	79 ± 0.2	28	1.4	1.9	1.9	2.1	1.5	1.8	exhibit their stabilization effect even at 1 μM concentration; also recorded: stop bands only in G-patch 6
C(=C\c1cc(/C=C/c2ccc3c(c2)CCO3)[n+]2c(c1)-c1c(ccc3c1-c1cccc[n+]1CCC3)CCC2)/c1ccc2c(c1)CCO2 [Compound 14]	minimal or no effect on virus adsorption	significantly impairing viral replication	up to 8 h	preserved their activity at later time points	64 ± 0.2	13	1.2	1.7	1.4	2.0	1.5	1.8	stop bands only in G-patch 6
COc1ccc2ccccc2c1/C=C/c1cc[n+]2c(c1)-c1c(c(C)c(C)c3c1-c1cc(/C=C/c4c(OC)ccc5ccccc45)cc[n+]1CC3)CC2 [Compound 15]	minimal or no effect on virus adsorption	significantly impairing viral replication	≤ 5 h	mainly manifested when these compounds are administered before or early during reverse transcription	70 ± 1.0	19	1.6	2.4	2.8	2.5	1.8	2.5	strong stop bands also in G-patch 6′; also recorded: exhibit their stabilization effect even at 1 μM concentration
